Laboratory results: ChEMBL document CHEMBL1154905, “The taiwaniaquinoids: a review” (J Nat Prod, 2010)

Columns and labels:
human gammaherpesvirus 4 [1] = test: Inhibition of TPA-induced EBV early antigen activation at 32 uM
human gammaherpesvirus 4 [2] = test: Inhibition of TPA-induced EBV early antigen activation at 3.2 uM
human gammaherpesvirus 4 [3] = test: Inhibition of TPA-induced EBV early antigen activation at 0.32 uM
human gammaherpesvirus 4 [4] = test: Inhibition of TPA-induced EBV early antigen activation at 16 uM
KB = test: Cytotoxicity against human KB cells; format: functional, cell-based
Aromatase [5] = target: T1, Aromatase (Homo sapiens, UniProt P11511); test: Inhibition of human recombinant aromatase at 10 uM
T1 sequence (P11511 whole entry): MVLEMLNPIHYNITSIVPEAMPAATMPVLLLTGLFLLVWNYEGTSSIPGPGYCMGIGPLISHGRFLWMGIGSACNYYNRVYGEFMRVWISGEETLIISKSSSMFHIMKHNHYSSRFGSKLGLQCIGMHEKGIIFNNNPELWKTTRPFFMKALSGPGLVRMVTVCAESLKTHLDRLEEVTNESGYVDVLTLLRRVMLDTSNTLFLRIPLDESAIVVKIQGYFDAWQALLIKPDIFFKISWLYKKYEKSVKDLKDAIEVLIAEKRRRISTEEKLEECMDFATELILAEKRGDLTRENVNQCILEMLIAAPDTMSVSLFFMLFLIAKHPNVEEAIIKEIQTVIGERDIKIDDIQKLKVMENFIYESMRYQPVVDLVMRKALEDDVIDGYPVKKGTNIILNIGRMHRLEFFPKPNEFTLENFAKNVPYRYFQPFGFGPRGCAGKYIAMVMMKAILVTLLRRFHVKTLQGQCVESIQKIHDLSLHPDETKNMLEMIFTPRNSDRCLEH

Aromatase [6] = target: T1, Aromatase; test: Inhibition of human recombinant aromatase at 0.3 uM
Aromatase [7] = target: T1, Aromatase; test: Inhibition of human recombinant aromatase at 3 uM
Aromatase [8] = target: T1, Aromatase; test: Inhibition of human recombinant aromatase at 0.6 uM
Aromatase [9] = target: T1, Aromatase; test: Inhibition of human recombinant aromatase at 1 uM

CC[C@@H](C)CC[C@H]1[C@@H](C)CC[C@H]2C(C)(C)CCC[C@]12C
inhibition (human gammaherpesvirus 4 [1]): 92.3%
inhibition (human gammaherpesvirus 4 [2]): 22.2%
inhibition (human gammaherpesvirus 4 [3]): 4.5%
inhibition (human gammaherpesvirus 4 [4]): 51.9%

CC(C)c1c(O)c2c(c3c1OCO3)[C@@]1(C)CCCC(C)(C)[C@@H]1[C@H]2C=O [TAIWANIAQUINOL A]
EC50 (KB): 8.3 µM

COC1=C(C(C)C)C(=O)C2=C(C1=O)[C@@]1(C)CCCC(C)(C)C1=C2 [TAIWANIAQUINONE H]
EC50 (KB): > 10 µM

CC(C)C1=C(O)C(=O)C2=C(C1=O)C(C=O)=C1C(C)(C)CCC[C@]21C [TAIWANIAQUINONE D]
EC50 (KB): 7.2 µM

COc1c(O)c2c(c(O)c1C(C)C)C(=O)[C@@H]1C(C)(C)C(=O)CC[C@]21C [TAIWANIAQUINOL F]
EC50 (KB): > 10 µM

COC(=O)[C@H]1C2=C(C(=O)C(O)=C(C(C)C)C2=O)[C@@]2(C)CCCC(C)(C)[C@H]12 [TAIWANIQUINONE E]
EC50 (KB): > 10 µM

COc1c(O)c2c(c(O)c1C(C)C)C(=O)[C@H]1C(C)(C)CCC[C@]21C [TAIWANIAQUINOL E]
EC50 (KB): > 10 µM

CC1=C(/C=C/C(C)=C/C=C/C(C)=C/C=C/C=C(C)/C=C/C=C(C)/C=C/C2=C(C)CCCC2(C)C)C(C)(C)CCC1
inhibition (human gammaherpesvirus 4 [1]): 91%
inhibition (human gammaherpesvirus 4 [2]): 18%
inhibition (human gammaherpesvirus 4 [3]): 0%
inhibition (human gammaherpesvirus 4 [4]): 66%

CC(=O)N1CCN(c2ccc(OCC3COC(Cn4ccnc4)(c4ccc(Cl)cc4Cl)O3)cc2)CC1 (configuration not stated) [KETOCONAZOLE]
inhibition at 10 µM (Aromatase [5]): 92.5%
inhibition at 0.3 µM (Aromatase [6]): 89.3%
inhibition at 3 µM (Aromatase [7]): 83.8%

COc1c(O)c2c(c(O)c1C(C)C)C(C=O)=C1C(C)(C)CCC[C@@]12C [TAIWANIAQUINOL D]
EC50 (KB): 3.5 µM

COC1=C(C(C)C)C(=O)C2=C(C1=O)[C@@]1(C)CCCC(C)(C)[C@@H]1[C@H]2C=O [TAIWANIAQUINONE]
EC50 (KB): 4.4 µM

C[C@]12CCC(=O)C(O)=C1CC[C@@H]1[C@@H]2CC[C@]2(C)C(=O)CC[C@@H]12 [FORMESTANE]
inhibition at 0.6 µM (Aromatase [8]): 63.7%

N#Cc1ccc(C(c2ccc(C#N)cc2)n2cncn2)cc1 [LETROZOLE]
inhibition at 10 µM (Aromatase [5]): 87.9%
inhibition at 0.3 µM (Aromatase [6]): 81.7%
inhibition at 3 µM (Aromatase [7]): 87.5%

CC(C)c1cc(C=O)c2c(c1O)[C@H](O)[C@H]1C(C)(C)CCC[C@]21C
inhibition (human gammaherpesvirus 4 [1]): 85.9%
inhibition (human gammaherpesvirus 4 [2]): 16.7%
inhibition (human gammaherpesvirus 4 [3]): 0%
inhibition (human gammaherpesvirus 4 [4]): 32%

COc1c(O)c2c(c(O)c1C(C)C)[C@@H](C=O)[C@H]1C(C)(C)CCC[C@]21C [TAIWANIAQUINOL C]
EC50 (KB): 8.1 µM

CC(=O)Oc1c(C(C)C)cc(C=O)c2c1[C@H](OC(C)=O)[C@H]1C(C)(C)CCC[C@]21C [STANDISHINAL DIACETATE]
inhibition (human gammaherpesvirus 4 [1]): 84.5%
inhibition (human gammaherpesvirus 4 [2]): 11.1%
inhibition (human gammaherpesvirus 4 [3]): 0%
inhibition at 1 µM (Aromatase [9]): 38.6%
inhibition (human gammaherpesvirus 4 [4]): 30.5%

COC1=C(C(C)C)C(=O)C2=C(C1=O)[C@@]1(C)CCCC(C)(C)[C@@H]1C2 [TAIWANIAQUINONE G]
EC50 (KB): > 10 µM

COc1cc([C@@H]2c3cc4c(cc3[C@@H](O[C@@H]3O[C@@H]5CO[C@@H](C)O[C@H]5[C@H](O)[C@H]3O)[C@H]3COC(=O)[C@H]23)OCO4)cc(OC)c1O [ETOPOSIDE]
EC50 (KB): 1.1 µM

CC(C)C1=C(O)C(=O)C2=C(C1=O)[C@H](C=O)[C@H]1C(C)(C)CCC[C@]21C [TAIWANIQUINONE A]
EC50 (KB): 6.9 µM

COc1c(O)c2c(c(O)c1C(C)C)C(=O)[C@@H]1C(C)(C)CCC[C@]21C [TAIWANIAQUINOL B]
EC50 (KB): > 10 µM
